Consider five molecules from paper PMC8043206 (ACS Pharmacology & Translational Science, 2021).

This experiment has as its system SARS-CoV-2-S pseudotyped particles. Format: cell-based. Conditions: Calu-3 cells.
Regarding `CCOC(=O)c1ccc(OC(=O)CCCCCNC(=N)N)cc1` [NCGC00025297, Gabexate], the “Activity on viral entry in PP entry assay (in words)” value (“Activity on viral entry” for short) was “did not exhibit an activity”.

Regarding `N=C(N)c1ccc2cc(OC(=O)c3ccc(N=C(N)N)cc3)ccc2c1` [NCGC00160398, Nafamostat], the “Activity on viral entry” value is “high potency and efficacy”.

For the molecule `CN(C)C(=O)COC(=O)Cc1ccc(OC(=O)c2ccc(NC(=N)N)cc2)cc1` [NCGC00167526, Camostat], the “Activity on viral entry” value was “high potency and efficacy”.

For `COC(=O)[C@H](Cc1cccc(C(=N)N)c1)[C@@H](C)NC(=O)c1ccc(-c2cc[n+]([O-])cc2)cc1` [NCGC00378763, Otamixaban], the “Activity on viral entry” value was “efficient activity”.

As for `C=Cc1cc(C(=O)Nc2ccc(C(=N)N)cc2)c(-c2ccc(C(=O)NCC3CC3)nc2C(=O)O)cc1OC` [NCGC00522636, Avoralstat], the “Activity on viral entry” value is reported as “comparable inhibition activity to camostat”.
